According to patent US7205162B1, “Artificial antibodies, method of producing the same and use thereof” (priority 1995, dated 2007):

Legend:
[1] = Molecularly Imprinted Sorbent Assay (MIA), competitive binding of 3H-theophylline to anti-theophylline polymer; conditions: for Cross-reaction (%) ArtAb, Theophylline antibodies: molar ratio of theophylline to ligand giving 50% inhibition of 3H-theophylline binding to polymer, ligands added to drug free serum
[2] = test system: natural antibodies (Ab's) against theophylline; conditions: data from ref 22; cited from earlier work
[3] = Molecularly Imprinted Sorbent Assay (MIA), competitive binding of 3H-diazepam to anti-diazepam polymer; conditions: molar ratio of diazepam to ligand giving 50% inhibition of 3H-diazepam binding to polymer; ligands added to drug free serum
[4] = test system: natural antibodies (Ab's) against diazepam; conditions: data from ref 24; cited from earlier work
[5] = Scatchard plot analysis with radio-labelled ligand, anti-diazepam polymer
Description: (§1) The equilibrium dissociation constants (KD) for binding of the drugs to the corresponding polymers were estimated by Scatchard plot analysis using radio-labelled ligands.

[6] = Scatchard plot analysis with radio-labelled ligand, anti-theophylline polymer; format: binding; conditions: LIGAND programme
Description: as §1

| Compound | Cross-reaction (%) ArtAb, Theophylline antibodies [1] | Cross-reaction (%) Ab*, Theophylline antibodies [2] | Cross-reaction (%) ArtAb, Diazepam antibodies [3] | Cross-reaction (%) Ab**, Diazepam antibodies [4] | further results |
| --- | --- | --- | --- | --- | --- |
| Cn1c(=O)c2[nH]c(=O)[nH]c2n(C)c1=O [1,3-Dimethyluric acid] | <1% | <1% | – | – | – |
| Cn1c(=O)[nH]c2[nH]c(=O)[nH]c2c1=O [1-Methyluric acid] | <1% | <1% | – | – | – |
| Cn1c(=O)[nH]c(=O)c2[nH]cnc21 [3-Methylxantin, 3-methylxanthine] | 7% | 2% | – | – | cross-reactivity in MIA for theophylline (in words) [1]: some cross-reactivity |
| Cn1c(=O)c2c(ncn2CCO)n(C)c1=O [7-(β-Hydroxyethyl)-1,3-di-methylxanthine] | <1% | <1% | – | – | – |
| Cc1nnc2n1-c1ccc(Cl)cc1C(c1ccccc1)=NC2 [Alprazolam] | – | – | 40% | 44% | – |
| CNC1=Nc2ccc(Cl)cc2C(c2ccccc2)=[N+]([O-])C1 [Chlordiazepoxid] | – | – | 2% | <1% | – |
| O=C1CN=C(c2ccccc2Cl)c2cc([N+](=O)[O-])ccc2N1 [Clonazepam] | – | – | 9% | 5% | – |
| O=C1CN=C(c2ccccc2)c2cc(Cl)ccc2N1 [Demethyldiazepam, Desmethyldiazepam] | – | – | 27% | 32% | – |
| CN1C(=O)CN=C(c2ccccc2)c2cc(Cl)ccc21 [Diazepam] | – | – | 100% | 100% | Kd ([5]; read-out: KD, high affinity binding sites, LIGAND programme): 37.6 nM; Kd ([5]; read-out: KD, low affinity binding sites, LIGAND programme): 73.6 nM |
| O=c1[nH]cnc2nc[nH]c12 [Hypoxanthine] | <1% | <1% | – | – | – |
| O=C1Nc2ccc(Cl)cc2C(c2ccccc2Cl)=NC1O (stereo not shown) [Lorazepam] | – | – | 4% | 1% | – |
| Cn1cnc2c1c(=O)[nH]c(=O)n2C [Theobromine, 3,7-dimetylxanthine] | – | <1% | – | – | – |
| Cn1c(=O)c2[nH]cnc2n(C)c1=O [Theophylline, 1,3-dimethylxanthine] | 100% | 100% | – | – | Kd ([6]; read-out: KD, high affinity binding sites): 346 nM; Kd ([6]; read-out: KD, low affinity binding sites): 65500 nM |
| O=c1[nH]c(=O)c2[nH]c(=O)[nH]c2[nH]1 [Uric acid] | <1% | <1% | – | – | – |
| O=c1[nH]c(=O)c2[nH]cnc2[nH]1 [Xanthine] | <1% | <1% | – | – | – |
| Cn1c(=O)c2[nH]cnc2n(C)c1=O [[^3H]-theophylline] | – | – | – | – | time to binding equilibrium ([1]; 12.5 mg polymer, acetonitrile-acetic acid (99/1), room temperature): 8 h; share of the binding occurred within 3 h ([1]; within 3 h, acetonitrile-acetic acid (99/1), room temperature): 80%; share of the binding occurred within 5 h ([1]; within 5 h, acetonitrile-acetic acid (99/1), room temperature): 90% |
